Results published in patent US20180221352A1, “3-(1H-PYRROLO[2,3-C]PYRIDIN-2-YL)-1H-PYRAZOLO[3,4-B]PYRIDINES AND THERAPEUTIC USES THEREOF” (Samumed, LLC, priority 2015, published 2018).
Values belong to the compound of their own block, whether it stands above or below them.

Assays:
Type in all cases: cell-based
[1] = test system: primary human mesenchymal stem cells (hMSCs); test: Induction of chondrogenesis in hMSCs (nodule count); settings: 6 days; for Emax: relative to TGF-β3 (10 ng/mL) positive control, read-out: Max. Activity as % TGF-β3 activity; for EC50: concentration required to induce 50% levels of chondrogenesis vs TGF-β3, read-out: Conc (nM) of 50% TGF-β3 activity
Excerpt: Representative compounds were screened using primary human mesenchymal stem cells (hMSCs) to determine their ability to induce chondrogenesis (process by which cartilage is developed).
Primary human mesenchymal stem cells (hMSCs) were purchased from Lonza (Walkersville, Md.) and expanded in Mesenchymal Stem Cell Growth Media (Lonza). Cells between passage 3 and 6 were used for the experiments.
To image chondrogenic nodules, the cells were fixed using 4% formaldehyde (Electron Microscopy Sciences), and stained with 2 μg/mL Rhodamine B (Sigma-Aldrich) and 20 μM Nile Red (Sigma-Aldrich) [Johnson K., et. al, A Stem Cell-Based Approach to Cartilage Repair, Science, (2012). […] Number of nodules in each well was normalized to the average of 3 DMSO treated wells on the same plate using Excel (Microsoft Inc.). The normalized averages (fold change over DMSO) of 3 replicate wells for each compound concentration were calculated. Due to solubility limitations of some of the compounds, curve fitting was incomplete leading to inaccurate EC50 determinations.
Using TGF-β3 as a positive control, the concentration of representative compounds required to induce 50% levels of chondrogenesis is reported. In addition, the maximum activity of each compound and the respective dose that each compound reached maximum chondrogenesis activity is reported.

[2] = test system: SW480 colon cancer cells; test: Cell viability assay (CellTiter-Blue); settings: Homo sapiens; for EC50: 96 h, SW480 cell viability, four days; for inhibition at 10 µM: SW480, 96 h, read-out: percent inhibition at 10 μM
Experimental: Representative compounds were screened using the following assay procedure to assess the effect on cell viability as described below.
Approximately 2×10^3 SW480 colon cancer cells were seeded into each well and allowed to incubate in the presence or absence of compound for four days at 37° C./5% CO2. Eight replicates of DMSO-treated cells served as controls and cells treated with compound were performed in duplicate.
After incubation, 20 μL of CellTiter-Blue (Promega) was added to each well allowed to incubate for approximately 3 hours. This reagent was a buffered solution which contains resazurin, metabolically active cells were able to reduce rezarurin (blue) into resorufin (pink) which was highly fluorescent. This measured fluorescence was used as a readout for cell viability.

[3] = test system: primary human fibroblasts derived from IPF patients (LL29 cells); test: Inhibition of fibrotic process, αSMA staining in TGF-β1 treated fibroblasts; settings: Fibroblast; for EC50: 96 h, LL29 cells, TGF-β1 20 ng/mL, 4 days, % αSMA positive cells
Experimental: Representative compounds were screened using primary human fibroblasts (derived from IPF patients) treated with TGF-β1 to determine their ability to inhibit the fibrotic process.
LL29 cells are plated at 1,500 cells/well in 80 μL/well F12 medium supplemented with 1% Fetal Bovine Serum. […] Wells treated with TGF-31 and containing DMSO were used as controls. […] Following incubation for 4 days, SYTOX green nucleic acid stain (Life Technologies [Thermo Fisher Scientific]) was added to the wells at a final concentration of 1 μM and incubated at room temperature for 30 min.

[4] = test system: Wnt activity (Sp5-Luc reporter, SW480 colon carcinoma cells); test: Wnt activity screening assay, Sp5-Luc reporter gene in SW480 cells; settings: Homo sapiens; for inhibition at 10 µM: SW480, read-out: percent inhibition at 10 μM; for EC50: Sp5-Luc reporter, SW480 cells, overnight incubation
Excerpt: The screening assay for Wnt activity is described as follows. Reporter cell lines can be generated by stably transducing cancer cell lines (e.g., colon cancer) or primary cells (e.g., IEC-6 intestinal cells) with a lentiviral construct that includes a Wnt-responsive promoter driving expression of the firefly luciferase gene.
SW480 colon carcinoma cells were transduced with a lentiviral vector expressing luciferase with a human Sp5 promoter consisting of a sequence of eight TCF/LEF binding sites. SW480 cells stably expressing the Sp5-Luc reporter gene and a hygromycin resistance gene were selected by treatment with 150 μg/mL of hygromycin for 7 days. These stably transduced SW480 cells were expanded in cell culture and used for all further screening activities. […] For Sp5-Luc reporter gene assays, the cells were plated at 4,000 cells/well in 384-well plates with medium containing 1% fetal bovine serum and incubated overnight at 37° C. and 5% CO2. Following incubation, 20 μl of BrightGlo luminescence reagent (Promega) was added to each well of the 384-well assay plates. The plates were placed on an orbital shaker for 2 min and then luminescence was quantified using the Envision (Perkin Elmer) plate reader. Readings were normalized to DMSO only treated cells, and normalized activities were utilized for EC50 calculations using the dose-response log (inhibitor) vs. response−variable slope (four parameters) nonlinear regression feature available in GraphPad Prism 5.0 (or Dotmatics).

[5] = test system: IL-6; test: IL-6 inhibition in LPS-stimulated THP-1 cells (HTRF); settings: Homo sapiens; for EC50: THP-1 cells, LPS 500 ng/mL, 22 hours, IL6 HTRF; for inhibition at 10 µM: THP-1, read-out: percent inhibition at 10 μM
Experimental: THP-1 cells were cultured in basal media with 1% FBS for 24 hours before the start of the assay. […] THP-1 cells were plated at 5000 cells/well in the 384-well plates and incubated at 37° C. for 2 h. 500 ng/mL of LPS was added after 2 hours and cells were incubated for another 22 hours at 37° C. Plates were spun in a centrifuge for 1 minute at […] and a mixture of anti-IL6 XL665, and anti-IL6 Cryptate diluted in reconstitution buffer (Cisbio Inc.) was added to each well. Following incubation for 3 hrs at room temperature, Homogeneous Time-Resolved Fluorescence (HTRF) was measured using the Envision (Perkin Elmer) at 665 nm and […]. The ratio of fluorescence at 665 nm to 620 nm was used as a readout for IL6 quantification. All samples were processed in duplicate. Readings were normalized to DMSO treated cells and normalized activities were utilized for EC50 calculations using the dose-response log (inhibitor) vs. response−variable slope (four parameters) nonlinear regression feature available in GraphPad Prism 5.0 (or Dotmatics).

Structure (SMILES): O=C(Nc1cncc(-c2cnc3[nH]nc(-c4cc5c(-c6ccccc6F)cncc5[nH]4)c3c2)c1)C1CC1 [Compound 76, N-(5-(3-(4-(2-Fluorophenyl)-1H-pyrrolo[2,3-c]pyridin-2-yl)-1H-pyrazolo [3,4-b]pyridin-5-yl)pyridin-3-yl)cyclopropanecarboxamide]
- EC50 [1]: 10 nM
- Emax [1]: 52%
- EC50 [2]: 292 nM
- EC50 [3]: 110 nM
- EC50 [4]: 390 nM
- inhibition at 10 µM [5]: 22%
- EC50 [5]: > 10000 nM

Structure (SMILES): CC(C)C(=O)Nc1cncc(-c2cnc3[nH]nc(-c4cc5c(-c6ccccc6F)cncc5[nH]4)c3c2)c1 [Compound 65, N-(5-(3-(4-(2-Fluorophenyl)-1H-pyrrolo[2,3-c]pyridin-2-yl)-1H-pyrazolo [3,4-b]pyridin-5-yl)pyridin-3-yl)isobutyramide]
- Emax [1]: 45%
- EC50 [2]: 2860 nM
- EC50 [3]: 2390 nM
- EC50 [4]: 2090 nM
- EC50 [5]: 1440 nM

Structure (SMILES): Fc1cccc(-c2cncc3[nH]c(-c4n[nH]c5ncc(-c6cncc(CNCc7ccccc7)c6)cc45)cc23)c1 [Compound 24, N-Benzyl-1-(5-(3-(4-(3-fluorophenyl)-1H-pyrrolo[2,3-c]pyridin-2-yl)-1H-pyrazolo[3,4-b]pyridin-5-yl)pyridin-3-yl)methanamine]
- EC50 [1]: 900 nM
- Emax [1]: 65%
- EC50 [2]: 2800 nM
- EC50 [3]: 1280 nM
- EC50 [4]: 3920 nM
- EC50 [5]: 2090 nM

Structure (SMILES): c1cncc(-c2cncc3[nH]c(-c4n[nH]c5ncc(-c6cncnc6)cc45)cc23)c1 [Compound 111, 3-(4-(Pyridin-3-yl)-1H-pyrrolo[2,3-c]pyridin-2-yl)-5-(pyrimidin-5-yl)-1H-pyrazolo[3,4-b]pyridine]
- Emax [1]: 24%
- EC50 [2]: > 10000 nM
- inhibition at 10 µM [2]: 8.6%
- EC50 [3]: 1720 nM
- inhibition at 10 µM [4]: 11.9%
- EC50 [4]: > 10000 nM
- EC50 [5]: 6590 nM

Structure (SMILES): Fc1ccc(-c2cncc3[nH]c(-c4n[nH]c5ncc(-c6cncc(CN7CCCC7)c6)cc45)cc23)cc1 [Compound 42, 3-(4-(4-Fluorophenyl)-1H-pyrrolo[2,3-c]pyridin-2-yl)-5-(5-(pyrrolidin-1-ylmethyl)pyridin-3-yl)-1H-pyrazolo[3,4-b]pyridine]
- EC50 [1]: 2700 nM
- Emax [1]: 133%
- EC50 [2]: 940 nM
- EC50 [3]: 1290 nM
- EC50 [4]: 2140 nM
- EC50 [5]: 3270 nM

Structure (SMILES): CCC(=O)Nc1cncc(-c2cnc3[nH]nc(-c4cc5c(-c6cccc(F)c6)cncc5[nH]4)c3c2)c1 [Compound 1, N-(5-(3-(4-(3-Fluorophenyl)-1H-pyrrolo[2,3-c]pyridin-2-yl)-1H-pyrazolo [3,4-b]pyridin-5-yl)pyridin-3-yl)propionamide]
- EC50 [1]: 10 nM
- Emax [1]: 113%
- EC50 [2]: 771 nM
- EC50 [3]: 859 nM
- EC50 [4]: 246 nM
- EC50 [5]: 1180 nM

Structure (SMILES): Cc1ccncc1-c1cnc2[nH]nc(-c3cc4c(-c5ccc(F)cc5)cncc4[nH]3)c2c1 [Compound 33, 3-(4-(4-Fluorophenyl)-1H-pyrrolo[2,3-c]pyridin-2-yl)-5-(4-methylpyridin-3-yl)-1H-pyrazolo[3,4-b]pyridine]
- EC50 [1]: 10 nM
- Emax [1]: 67%
- EC50 [2]: 2090 nM
- EC50 [3]: 1040 nM
- inhibition at 10 µM [4]: 49.4%
- EC50 [4]: > 10000 nM
- inhibition at 10 µM [5]: 26.1%
- EC50 [5]: > 10000 nM

Second part, led by results:

- EC50 [2]: > 10000 nM
- EC50 [4]: > 10000 nM
- EC50 [5]: 196 nM
Structure (SMILES): CC(C)(C)C(=O)Nc1cncc(-c2cnc3[nH]nc(-c4cc5c(-c6ccncc6)cncc5[nH]4)c3c2)c1 [Compound 120, N-(5-(3-(4-(Pyridin-4-yl)-1H-pyrrolo[2,3-c]pyridin-2-yl)-1H-pyrazolo[3,4-b]pyridin-5-yl)pyridin-3-yl)pivalamide]
- Emax [1]: 34%
- inhibition at 10 µM [2]: 13.5%
- EC50 [3]: 2720 nM
- inhibition at 10 µM [4]: 5%

- EC50 [1]: 2700 nM
- EC50 [2]: 3430 nM
- EC50 [4]: 3580 nM
- EC50 [5]: 395 nM
Structure (SMILES): O=C(Nc1cncc(-c2cnc3[nH]nc(-c4cc5ccncc5[nH]4)c3c2)c1)C1CCCCC1 [Compound 275, N-(5-(3-(1H-Pyrrolo[2,3-c]pyridin-2-yl)-1H-pyrazolo[3,4-b]pyridin-5-yl)pyridin-3-yl)cyclohexanecarboxamide]
- Emax [1]: 291%
- EC50 [3]: 1700 nM

- EC50 [2]: > 10000 nM
- EC50 [4]: 1680 nM
- EC50 [5]: 93 nM
Structure (SMILES): CCCC(=O)Nc1cncc(-c2cnc3[nH]nc(-c4cc5c(-c6cc(F)cc(CNS(C)(=O)=O)c6)cncc5[nH]4)c3c2)c1 [Compound 493, N-(5-(3-(4-(3-Fluoro-5-(methylsulfonamidomethyl)phenyl)-1H-pyrrolo[2,3-c]pyridin-2-yl)-1H-pyrazolo[3,4-b]pyridin-5-yl)pyridin-3-yl)butyramide]
- Emax [1]: 37%
- inhibition at 10 µM [2]: 46.1%
- EC50 [3]: 8900 nM

- EC50 [2]: > 10000 nM
- EC50 [4]: > 10000 nM
- EC50 [5]: 412 nM
Structure (SMILES): Nc1cncc(-c2cnc3[nH]nc(-c4cc5c(-c6ccncc6)cncc5[nH]4)c3c2)c1 [Compound 115, 5-(3-(4-(Pyridin-4-yl)-1H-pyrrolo[2,3-c]pyridin-2-yl)-1H-pyrazolo[3,4-b]pyridin-5-yl)pyridin-3-amine]
- Emax [1]: 32%
- inhibition at 10 µM [2]: 17.8%
- EC50 [3]: 3550 nM
- inhibition at 10 µM [4]: 13.9%

- EC50 [1]: 10 nM
- EC50 [2]: > 10000 nM
- EC50 [4]: > 10000 nM
- EC50 [5]: > 10000 nM
Structure (SMILES): CCCCC(=O)Nc1cncc(-c2cnc3[nH]nc(-c4cc5c(-c6ccncc6)cncc5[nH]4)c3c2)c1 [Compound 131, N-(5-(3-(4-(Pyridin-4-yl)-1H-pyrrolo[2,3-c]pyridin-2-yl)-1H-pyrazolo[3,4-b]pyridin-5-yl)pyridin-3-yl)pentanamide]
- Emax [1]: 70%
- inhibition at 10 µM [2]: 18.9%
- EC50 [3]: > 10000 nM
- inhibition at 10 µM ([3]; read-out: percent inhibition at 10 μM): 27.9%
- inhibition at 10 µM [4]: 3.4%
- inhibition at 10 µM [5]: 24.5%

- EC50 [1]: 100 nM
- EC50 [2]: 652 nM
- EC50 [4]: 416 nM
- EC50 [5]: 169 nM
Structure (SMILES): Fc1ccccc1-c1cncc2[nH]c(-c3n[nH]c4ncc(-c5cn[nH]c5)cc34)cc12 [Compound 539, 3-(4-(2-Fluorophenyl)-1H-pyrrolo[2,3-c]pyridin-2-yl)-5-(1H-pyrazol-4-yl)-1H-pyrazolo[3,4-b]pyridine]
- Emax [1]: 51%
- EC50 [3]: 99 nM
